Experimental findings from patent US20240335395A1, “COMPOSITIONS AND METHODS FOR PREVENTING AND/OR TREATING DISEASE ASSOCIATED WITH IL-23 EXPRESSION” (ALLSPIM, priority 2021, published 2024) are described below.

Assay [1] relates to IL-6. The experiment in a line: MSU-induced IL-6 in knee joint tissue (multiplex microassay). Type of assay: in vivo, mouse. The settings on record: 2,4-D 100 mg/kg, CLC 1 mg/kg, DEX 0.5 mg/kg. On the procedure: (§1) Mice (six per group) were treated with 2,4-D (100 mg/kg or 20 mg/kg, i.p.), CLC (1 mg/kg or 0.2 mg/kg, i.p.), DEX (0.5 mg/kg or 0.1 mg/kg, i.p.), or vehicle (20% polyoxyethylenesorbitan monooleate (Tween 80) plus PBS) 30 min before intra-articular stimulus with MSU (100 μg/10 μL, i.a.). Six mice with intra-articular injection with PBS alone served as a negative control.
(§2) Induction of MSU-Induced Knee Joint Inflammation. Male ICR (CD-1) mice (35-45 g, 10-12 weeks) were purchased from VitalRiver Inc (Beijing, China) and were kept in an animal care facility under controlled temperature of 21±1° C., humidity, and on a light/dark cycle, with ad libitum access to water and standard laboratory chow diet. Animal care and handling procedures were approved by the Animal Ethics Committee of GZUCM (Guangzhou University of Chinese Medicine). All efforts were made to minimize animal suffering and to reduce the number of animals used. Joint inflammation was induced by the intra-articular (i.a.) administration of MSU (200 μg/20 μl) into the right and left knee joints of mice under inhaled 3% isoflurane anesthesia. Control animals received an injection (i.a.) of sterile PBS (20 μL).
(§3) Cytokine Measurement. Mice were anesthetized and sacrificed. Knee joints were collected and frozen in liquid nitrogen. Samples were then homogenized in 500 μl of buffer containing protease inhibitors, centrifuged (3600 rpm, 4° C., 15 min) and supernatants were used to determine Th1/Th2/Th17 cytokine levels using a multiplex microassay (Qantibody® mouse TH17 Array 1 kit, Cat. No.: QAM-TH17-1; RayBiotech, Norcross, GA). Results were expressed as picograms (pg) of cytokine/mg of tissue.
(§4) Statistical Analysis. […] For in vitro experiments, microassays were performed in quadruplicate. p<0.05 was considered significant (*p<0.05, **p<0.01, ***p<0.001).

The test system of assay [2] is IL-10. The experiment in a line: MSU-induced IL-10 in knee joint tissue (multiplex microassay). The assay is classed as in vivo, mouse. As to conditions: 2,4-D 100 mg/kg, DEX 0.5 mg/kg. On the procedure:
as §1, §2, §3, §4

Assay [3] has as its system MSU-induced leukocyte recruitment. The experiment in a line: MSU-induced leukocyte recruitment to the synovial cavity of knee joint. As to conditions: 20 h; 2,4-D 100 mg/kg, CLC 1 mg/kg, DEX 0.5 mg/kg. The assay is classed as in vivo, mouse. On the procedure: (§5) 2,4-D, isolated and purified from Chloranthus spicatus (purity≥98%), was purchased from BOC Science (Shirley, NY). Colchicine (CLC) (purity≥96%) and dexamethasone (DEX) (purity≥98%) were purchased from Sigma. Mice (six per group) were treated with 2,4-D (100 mg/kg or 20 mg/kg, i.p.), CLC (1 mg/kg or 0.2 mg/kg, i.p.), DEX (0.5 mg/kg or 0.1 mg/kg, i.p.), or vehicle (20% polyoxyethylenesorbitan monooleate (Tween 80) plus PBS) 30 min before intra-articular stimulus with MSU (100 μg/10 μL, i.a.). Six mice with intra-articular injection with PBS alone served as a negative control.
as §2
Histopathological Analysis. Knee joint was collected 20 h after MSU injection, fixed with 10% paraformaldehyde in PBS, and then decalcified for 10 days with EDTA and embedded in paraffin for histological analysis. […] Results are expressed as leukocytes infiltrate (cell/field) counted at the inflammatory foci within synovial cavity as indicative of synovitis. […]
Statistical Analysis. Data were analyzed using GraphPad Prism statistical software (GraphPad Software, Inc., United States-500.288, version 5.0). Results are presented as means±SEM or SD of measurements made on 6 mice per group, with statistical significance determined by two-way ANOVA, comparing each group to the control (“Model”) group. […]

The subject of assay [4] is IL-1ß. Put plainly: MSU-induced IL-1ß in knee joint tissue (multiplex microassay). Type of assay: in vivo, mouse. As to conditions: 2,4-D 100 mg/kg, CLC 1 mg/kg, DEX 0.5 mg/kg. On the procedure: as §1, §2, §3, §4
Assay [5] relates to IL-17/IL-23 and TNF signature cytokines and chemokines. Put plainly: Release of IL-17/IL-23 and TNF signature cytokines and chemokines into supernatant of LPS-stimulated THP-1 cells (ELISA). The assay is classed as cell-based, human. The settings on record: 24 h. On the procedure:
(§6) Sample Collection and Preparation. THP-1 cells, a human leukemia monocyte-derived cell line, have been widely used as a model to study the modulation of the immune response and the function of monocytes and monocyte-derived macrophages. Here, lipopolysaccharide (LPS)-stimulated THP-1 cells were used as a model to study the cytokine storm in vitro (Chanput et al., 2014). THP-1 cells (purchased from American Type Culture Collection, Rockville, MD) were grown in RPMI 1640 culture medium (Gibco) supplemented with 10% fetal bovine serum (FBS) (Gibco, UK), 0.05 mM 2-mercaptoethanol, and 1% penicillin/streptomycin (Invitrogen) at 37° C. in 5% CO2 in a humidified incubator. Cultured cells were plated into culture plates in appropriate volumes with a cell density of 5×10^5 cells/ml. 2,4-D was purchased from Wuhan ChemFaces Biochemical Co., Ltd (Hubei, China) and tested for cytotoxicity in THP-1 cells overnight using a commercial MTT Cell Proliferation and Cytotoxicity Assay Kit (Beyotime, Shanghai, China). […]
ELISA. […] Culture supernatants were measured according to the manufacturer's instructions. A Varioskan LUX microplate reader (Thermo Fisher, USA) was used for the assay and 4-parameter logistic regression was used for data analysis. […] Data are expressed as mean±SD. […]
A general note: An ELISA detects its analyte on a solid surface through an enzyme-linked reagent.

In assay [6] the test system is TNF-alpha. The experiment in a line: MSU-induced TNF-alpha in knee joint tissue (multiplex microassay). Type of assay: in vivo, mouse. As to conditions: 2,4-D 100 mg/kg, CLC 1 mg/kg, DEX 0.5 mg/kg. On the procedure:
as §1, §2, §3, §4

Assay [7] has as its system MSU-induced knee joint edema. The experiment in a line: MSU-induced knee joint edema in mice. Type of assay: in vivo, mouse. As to conditions: 20 h. On the procedure:
as §5
Preparation of monosodium urate crystal (MSU). MSU crystals were prepared as described previously (Ruiz-Miyazawa et al., 2017). Briefly, 800 mg of monosodium urate was dissolved in 155 ml of boiling milli-Q water containing 2N NaOH. After pH adjustment to 8.9, the solution was cooled gradually by stirring at room temperature and crystallized overnight at 4° C. Crystals were collected, and centrifuged at 3,000×g for 2 min at 4° C. The crystals were evaporated and sterilized by heating at 180° C. for 2 h and stored in a sterile environment until use. The load of endotoxin present in the MSU crystals was determined using a ToxinSensor^TM Single Test Kit (GenScript).
as §2
Evaluation of Knee Joint Edema. Knee joint edema was determined with a caliper (Mitutoyo) before (zero time), and after the intra-articular injection with MSU at the times indicated. Knee joint edema was determined for each mouse by the difference between the time points indicated on figures and the zero time (Ruiz-Miyazawa et al, 2017). The edema value is represented as Amm/joint.
Statistical Analysis. Data were analyzed using GraphPad Prism statistical software (GraphPad Software, Inc., United States-500.288, version 5.0). Results are presented as means±SEM or SD of measurements made on 6 mice per group, with statistical significance determined by two-way ANOVA, comparing each group to the control (“Model”) group. For in vitro experiments, microassays were performed in quadruplicate. p<0.05 was considered significant (*p<0.05, **p<0.01, ***p<0.001).

The test system of assay [8] is IL-17/IL-23 and TNF signaling pathway-associated cytokine genes and chemokine genes. The experiment in a line: Transcription of IL-17/IL-23 and TNF signature genes in LPS-stimulated THP-1 cells (qPCR). Type of assay: cell-based, human. The settings on record: 2 h; RPM 5-20 μM. On the procedure: as §6
Real-Time Quantitative PCR. Real-time quantitative PCR was performed in triplicate using the TB Green qPCR master mix (Takara Biomedical Technology Co., Ltd, Dalian, China) on an ABI 7500 Real-Time PCR System (Thermo, USA). […] The ΔΔCT method was used to quantify relative mRNA levels as described above in Example 1 (Applied Biosystems). Data are expressed as mean±SD. […]

Turning to `C[C@@H]1C[C@H]2[C@@H]3CCC4=CC(=O)C=C[C@]4(C)[C@@]3(F)[C@@H](O)C[C@]2(C)[C@@]1(O)C(=O)CO` [DEX, dexamethasone], the “decrease of IL-6 in knee joint tissue” value in assay [1] was “no effect”. In addition, in assay [2], the “decrease of IL-10 in knee joint tissue” value is 1.5 fold. The “reduction of MSU-induced leukocyte recruitment” value in assay [3] was 2.2 fold. For the same compound, the “decrease of IL-1ß in knee joint tissue” value in assay [4] was found to be 1.9 fold. The “reduction of release of IL-10, CCL2/MCP-1, CCL3/MIP-1alpha and CCL20/MIP-3alpha” value in assay [5] (DEX) is listed as 50-90%. Also, in assay [6], the “decrease of TNF-alpha in knee joint tissue” value was determined as 2.0 fold. For the same compound, the “reduction of MSU-induced knee joint edema” value amounted to 38.9% in assay [7] (high dose i.p.: 2,4-D 100 mg/kg, CLC 1 mg/kg, DEX 0.5 mg/kg) and 16.8% in assay [7] (low dose i.p.: 2,4-D 20 mg/kg, DEX 0.1 mg/kg).
On to `CO[C@H]1C[C@@H]2CC[C@@H](C)[C@@](O)(O2)C(=O)C(=O)N2CCCC[C@H]2C(=O)O[C@H]([C@H](C)C[C@@H]2CC[C@@H](O)[C@H](OC)C2)CC(=O)[C@H](C)/C=C(\C)[C@@H](O)[C@@H](OC)C(=O)[C@H](C)C[C@H](C)/C=C/C=C/C=C/1C` [Rapamycin, rapamycin, reference compound], for which, in assay [8], the “inhibition of transcription of Tnf, Il1ß, Ccl2 and Ccl3” value was at most 50 fold. Also, the inhibition at 20 µM in assay [5] (Homo sapiens, THP-1, 20 μM, read-out: inhibition of release of IL-1ß, IL-10, TNF-alpha, CCL2/MCP-1, CCL3/MIP-1alpha and CCL20) is under 50%.
